# In patent publication US9789096B2, “Methods and compositions for selective and targeted cancer therapy” (Board of Regents of the University of Texas System, priority 2013, dated 2017):
# Read-outs that look alike come from different tables or passages of the source.
# Assays:
# HBEC30KT = experiment: Cell viability (ATP, Cell Titer Glo, 4 days), HBEC30KT; assay type: cell-based, human; details: Homo sapiens
# H1155 = experiment: Cell viability dose-response, H1155; assay type: cell-based; details: Homo sapiens, NCI-H1155
# How it was run: (§1)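 Read-out is total cellular ATP, measured with CellTiter-Glo after four days of compound treatment. Cells start at 15% confluence in RPMI-1640 containing 5% FBS and 2 mM L-glutamine. Each point averages two replicates (±SEM).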
# H1395 = experiment: Cell viability dose-response, H1395; assay type: cell-based; details: Homo sapiens, NCI-H1395
# How it was run: as §1
# H1819 = experiment: Cell viability dose-response, H1819; assay type: cell-based, human; details: Homo sapiens
# How it was run: (§2)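 Cells plated at 15% confluence in RPMI-1640 with 5% FBS and 2 mM L-glutamine, treated with compound in a 12-point, 3-fold dilution series from 50 micromolar, in duplicate. ATP measured by Cell Titer Glo after 4 days; IC50 taken from the dose-response curve.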
# H1993 = experiment: Cell viability dose-response, H1993; assay type: cell-based; details: Homo sapiens, NCI-H1993
# How it was run: as §1
# H2009 = experiment: Cell viability dose-response, H2009; assay type: cell-based, human; details: Homo sapiens, NCI-H2009
# How it was run: as §1
# H2073 = experiment: Cell viability dose-response, H2073; assay type: cell-based, human; details: Homo sapiens
# How it was run: as §1
# H2122 = experiment: Cell viability dose-response, H2122; assay type: cell-based, human; details: Homo sapiens
# How it was run: as §2
# H460 = experiment: Cell viability dose-response, H460; assay type: cell-based; details: Homo sapiens, NCI-H460
# How it was run: as §1
# HCC4017 [1] = experiment: Cell viability dose-response, HCC4017; assay type: cell-based, human; details: Homo sapiens
# How it was run: as §1
# HCC44 = experiment: Cell viability dose-response, HCC44; assay type: cell-based, human; details: Homo sapiens
# How it was run: as §1
# HCC95 = experiment: Cell viability dose-response, HCC95; assay type: cell-based; details: Homo sapiens
# How it was run: as §1
# [2] = tested on: 12 lung adenocarcinoma cell lines; experiment: Proliferation of the panel of 12 lung adenocarcinoma cell lines; assay type: cell-based, human
# Method: (§3) FIG. 6A. […] Cell viability is plotted vs. compound concentration. Compound was added to cells plated at 15% confluence in 96-well plates in RPMI-1640 media supplemented with 5% Fetal Bovine Serum and 2 mM L-Glutamine. After 4 days of incubation, ATP levels were measured using Cell Titer Glo (Promega). Data are presented as the average of 2 replicates ±SEM.
# To discover selective agents, twelve cell lines of diverse genotype were selected for analysis. 108 lung cancer cell lines were initially clustered into six groups based on mRNA expression of genes that underwent frequent copy number variation. Two cell lines were chosen from each group for high throughput chemical screening. All 12 of the chosen cell lines were derived from lung adenocarcinomas, eliminating both lineage and histology as confounders. None of the cell lines chosen for screening harbored EGFR mutations or ALK rearrangements, so that the final set represented a collection of diverse lung adenocarcinoma genotypes for which there are no targeted therapy.
# The proliferative impact of each compound in the library was assayed by analyzing total ATP four days after administration of 2.5 μM in a single well. This first pass yielded 15,843 toxins defined as a compound where ATP levels were […] three standard deviations below the mean for at least one cell line. For each of these putative toxins, the average effect on proliferation was retested on each cancer cell line and a non-cancerous immortalized HBEC line (control), yielding a confirmation dataset.
# (§4) In addition, N-acyl benzothiazoles was also discovered, such as 4-amino-N-(6-methoxybenzo[d]thiazol-2-yl)benzamide (ATB). We compared the proliferation of 12 lung adenocarcinoma cell lines and three HBEC lines after the addition of ATB.
# (§5) We subsequently synthesized various derivatives that are both selective and potent (Tables 1 and 2). One leading candidate is a benzothiazole, SW202857, that inhibits proliferation in three of 12 adenocarcinoma cell lines at concentrations less than 10 nM.
# [3] = tested on: 3 human bronchial epithelial (HBEC) cell lines; experiment: Vitality of human bronchial epithelial (HBEC) cell lines; assay type: cell-based; details: at 10 μM
# Method: as §4, §5
# [4] = tested on: about 300 protein kinase enzymes; experiment: Kinase inhibition assays (EMD Millipore); assay type: biochemical, human
# Method: (§6) Specifically, kinase inhibition assays were performed at EMD Millipore at 1, 10 and 100 nM SW202857 and individually optimized concentrations of ATP. […] Listed kinases are the human enzyme unless indicated: mouse (m), rat (r), yeast (y).
# GSK3beta = molecular target: T1, GSK3beta (Homo sapiens, UniProt P49841); experiment: Kinase inhibition assay (EMD Millipore), GSK3beta; assay type: biochemical; details: 100 nM
# T1 construct: purchased EMD Millipore
# T1 sequence (P49841 whole entry): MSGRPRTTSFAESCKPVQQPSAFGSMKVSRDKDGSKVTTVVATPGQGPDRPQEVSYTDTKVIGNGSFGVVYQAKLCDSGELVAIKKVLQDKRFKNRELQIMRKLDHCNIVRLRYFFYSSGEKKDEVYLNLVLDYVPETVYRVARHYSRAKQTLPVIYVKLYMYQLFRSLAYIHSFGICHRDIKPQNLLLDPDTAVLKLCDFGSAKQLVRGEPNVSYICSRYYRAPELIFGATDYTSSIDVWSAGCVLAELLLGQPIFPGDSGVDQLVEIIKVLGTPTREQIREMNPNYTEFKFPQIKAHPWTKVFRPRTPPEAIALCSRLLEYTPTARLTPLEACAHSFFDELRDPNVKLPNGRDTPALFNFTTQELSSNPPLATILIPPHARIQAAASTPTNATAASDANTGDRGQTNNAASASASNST
# Method: as §6
# [5] = Stability in mouse liver S9 fractions; assay type: in vitro ADME
# H2122 cells = experiment: Metabolism by sensitive cells (HPLC/MS/MS); assay type: in vitro ADME, human
# Method: (§7) FIGS. 9A-9D. Selective toxins selectively cross-link to SCD1 in sensitive cells and are selectively metabolized in sensitive cells. FIG. 9A. 12 NSCLC cell lines were incubated with SW208108 and processed as described in FIG. 7. […] FIG. 9B. […] FIG. 9C. […] Demethylation is the anticipated mode of metabolism. FIG. 9D. A representative benzothiazole is demethylated by sensitive cell lines. […] Values in FIGS. 9C and 9D were obtained by tandem HPLC/MS/MS.
# (§8) In this context, 12 different NSCLC cell lines were treated with SW208108, lysed and clicked to a dye as previously described. […] To understand how SW208108 could selectively cross-link to SCD1 within some cell lines that expressed the enzyme but not other cell lines that expressed the same enzyme, we investigated the stability of a representative oxalamide in the presence of a sensitive and insensitive cell line. […] Similarly, a representative benzothiazole was metabolized by H2122 cells through, at least in part, the loss of the O-methyl group (FIG. 9D).
# HCC366 = experiment: Cell viability dose-response, HCC366; assay type: cell-based; details: Homo sapiens, 12-point dose-response starting at 50 micromolar, 3-fold increments, in duplicate, read-out: toxicity data, HCC366
# Method: as §3
# Selectivity may be measured by the half maximal inhibitory concentration (IC50), which, as used herein, is a measure of the effectiveness of a compound in killing cells. This quantitative measure indicates how much of a particular compound is needed to kill a particular cell population by half (e.g., as indicated by the amount of ATP). […] The IC50 can be determined by constructing a dose-response curve. The lower the IC50, the higher the potency, and the greater the difference between IC50 values for different cell lines (e.g., sensitive lines vs. insensitive lines, and sensitive lines vs. normal lines) the greater the selectivity. […]
# With this information, we synthesized and tested a series of small molecules derived in conception from the oxalamide and chromone scaffold including N-acyl ureas, as shown in Tables 6-8. Each compound was tested in a 12-point dose-response study starting at 50 micromolar and decreasing in 3-fold increments to sub-nanomolar concentrations, in duplicate. Additionally, one or more additional cell line was tested in the same way.
# HCC4017 [6] = experiment: Metabolism by insensitive cells (HPLC/MS/MS); assay type: in vitro ADME, human
# Method: as §7, §8
# [7] = ADME for xenograft studies; assay type: in vivo
# H2122 xenografts = experiment: In vivo efficacy, H2122 xenografts in NOD/SCID mice; parameters: species or system mouse; details: 25 mg/kg IP twice daily
# Method: (§9) FIG. 6C. […] NOD/SCID mice were injected with either H2122 (sensitive) or H1155 (insensitive) cells subcutaneously on day 0. When tumors reached 200 cubic mm, treatment with SW203668 (listed as A2) or vehicle was initiated (as indicated by the arrow) with twice daily doses of 25 mg/kg, IP. Tumor size was measured every 3 days for the duration of the study. Data are plotted as mean±SEM; n=12 for each group.
# H1155 xenografts = experiment: In vivo efficacy, H1155 xenografts in NOD/SCID mice; parameters: species or system mouse; details: 25 mg/kg IP twice daily
# Method: as §9
# [8] = NCI-H2122, Tables 3 and 4, read-out: IC50 (uM) vs indicated non-small cell lung cancer cell line H2122
structure (smiles),measurement,setting,value
"COc1ccc2nc(NC(=O)c3ccc(C(=O)c4ccccc4)cc3)sc2c1 [SW202857-1, 4-benzoyl-N-(6-methoxybenzo[d]thiazol-2-yl)benzamide]",IC50,"HBEC30KT; Tables 3 and 4, read-out: HBEC30KT IC50",22.8 µM
same,IC50,"H1155; Tables 3 and 4, read-out: IC50 (uM) vs indicated non-small cell lung cancer cell line H1155",22.3 µM
same,IC50,"H1395; Tables 3 and 4, read-out: IC50 (uM) vs indicated non-small cell lung cancer cell line H1395",31.8 µM
same,IC50,"H1819; NCI-H1819, Tables 3 and 4, read-out: IC50 (uM) vs indicated non-small cell lung cancer cell line H1819",42.7 µM
same,IC50,"H1993; Tables 3 and 4, read-out: IC50 (uM) vs indicated non-small cell lung cancer cell line H1993",21.3 µM
same,IC50,"H2009; Tables 3 and 4, read-out: IC50 (uM) vs indicated non-small cell lung cancer cell line H2009",3.16 µM
same,IC50,"H2073; NCI-H2073, Tables 3 and 4, read-out: IC50 (uM) vs indicated non-small cell lung cancer cell line H2073",0.0185 µM
same,IC50,"H2122; NCI-H2122, Table 9, competitor, read-out: IC50 to H2122 cells",0.00923 µM
same,IC50,H2122; [8],0.00839 µM
same,IC50,"H460; Tables 3 and 4, read-out: IC50 (uM) vs indicated non-small cell lung cancer cell line H460",0.046 µM
same,IC50,"HCC4017 [1]; HCC4017, Tables 3 and 4, read-out: IC50 (uM) vs indicated non-small cell lung cancer cell line HCC4017",32.6 µM
same,IC50,"HCC44; HCC44, Tables 3 and 4, read-out: IC50 (uM) vs indicated non-small cell lung cancer cell line HCC44",0.0236 µM
same,IC50,"HCC95; Tables 3 and 4, read-out: IC50 (uM) vs indicated non-small cell lung cancer cell line HCC95",10.8 µM
same,toxic concentration against four sensitive cell lines,[2]; four sensitive cell lines,less than 50 nM
same,concentration that inhibits proliferation in three of 12 adenocarcinoma cell lines,[2]; three sensitive lines,less than 10 nM
same,toxic effect on the other 9 adenocarcinoma cell lines,[2]; up to 10 μM,no toxic effect
same,vitality of 3 human bronchial epithelial (HBEC) cell lines,[3],nor does it affect the vitality
same,inhibition of about 300 protein kinase enzymes in vitro,[4]; 0.10 μM,failed to inhibit
same,"inhibition, all other kinases",[4]; highest concentration (100 nM),≤ 15%
same,inhibition at 0.1 µM,GSK3beta,21%
same,stability in the presence of mouse liver S9 fractions,[5],chemically stable
same,metabolism by sensitive H2122 cells,H2122 cells,demethylated
COc1ccc(CCNC(=O)C(=O)Nc2cccc(Cl)c2)cc1 [SW027950],IC50,"HBEC30KT; 12-point dose-response starting at 50 micromolar, 3-fold increments, in duplicate, read-out: toxicity data, HBEC30KT",34 µM
same,IC50,"H1155; 12-point dose-response starting at 50 micromolar, 3-fold increments, in duplicate, read-out: toxicity data, H1155",50 µM
same,IC50,"H1395; 12-point dose-response starting at 50 micromolar, 3-fold increments, in duplicate, read-out: toxicity data, H1395",50 µM
same,IC50,"H1819; NCI-H1819, 12-point dose-response starting at 50 micromolar, 3-fold increments, in duplicate, read-out: toxicity data, H1819",≥ 50 µM
same,IC50,"H1993; 12-point dose-response starting at 50 micromolar, 3-fold increments, in duplicate, read-out: toxicity data, H1993",50 µM
same,IC50,"H2009; 12-point dose-response starting at 50 micromolar, 3-fold increments, in duplicate, read-out: toxicity data, H2009",20.3 µM
same,IC50,"H2073; NCI-H2073, 12-point dose-response starting at 50 micromolar, 3-fold increments, in duplicate, read-out: toxicity data, H2073",1.4 µM
same,IC50,"H2122; NCI-H2122, 12-point dose-response starting at 50 micromolar, 3-fold increments, in duplicate, read-out: toxicity data, H2122",0.35 µM
same,IC50,"H460; 12-point dose-response starting at 50 micromolar, 3-fold increments, in duplicate, read-out: toxicity data, H460",3.9 µM
same,IC50,HCC366,50 µM
same,IC50,"HCC4017 [1]; HCC4017, 12-point dose-response starting at 50 micromolar, 3-fold increments, in duplicate, read-out: toxicity data, HCC4017",≥ 50 µM
same,IC50,"HCC44; HCC44, 12-point dose-response starting at 50 micromolar, 3-fold increments, in duplicate, read-out: toxicity data, HCC44",34 µM
same,IC50,"HCC95; 12-point dose-response starting at 50 micromolar, 3-fold increments, in duplicate, read-out: toxicity data, HCC95",0.35 µM
same,metabolism by sensitive H2122 cells,H2122 cells,metabolized
same,stability in the presence of an insensitive cell line,HCC4017 [6],completely stable
COc1ccc2nc(NC(=O)c3ccc(C(N)c4ccccc4)cc3)sc2c1 (centres unmarked) [SW203668],IC50,H2122; [8],0.035 µM
same,"absorption, distribution, metabolism, and excretion (ADME)",[7],"appropriate absorption, distribution, metabolism, and excretion"
same,tumor growth inhibition in H2122 xenografts,H2122 xenografts,selective toxicity
same,tumor growth inhibition in H1155 xenografts,H1155 xenografts,but not H1155 xenografts
